Laboratory results taken from US20080319000A1, “Use of 3,1IB-Cis-Dihydrotetrabenazine for the Treatment of Symptoms of Huntingtons Disease” (CAMBRIDGE LABORATORIES (IRELAND) LIMITED, priority 2005, published 2008).

Key:
[1] = tested on: B6CBA-Tg(HDexon1)62Gpb/1J transgenic (R6/2) mice; assay: Rotarod test in transgenic mice model of Huntington's disease; assay type: in vivo; conditions: 5 mg/kg i.p. Day 0 to Day 3
Method: B6CBA-Tg(HDexon1)62Gpb/1J transgenic (R6/2) mice are transgenic for the 5-end of the human HD gene carrying (CAG) 115-(CAG) 150 repeat expansions. […] These symptoms appear between 6 and 8 weeks of age. Female B6CBa-Tg(HDexon1)62Gpb/1J transgenic mice (Jackson Laboratory, USA) were housed 5 per cage in an enriched environment under a light-dark cycle of 12 h-12 h (light on at 7.00 am, off at 7.00 pm) at a room temperature of 21±2° C., with 50±15% humidity. The mice had access to commercial mouse chow (mouse/rate breeding, ref. 9341 Provimi Kliba, Switzerland) and tap water. […] Two consecutive days before the first administration, animals were trained to use the rotarod: they were placed on an accelerating rotarod (Ugo Basile, Italy) for a maximum time of 450 seconds. They went through 2 training sessions starting with 4 rpm for 300 seconds, then staying at 40 rpm for 150 seconds. The two training sessions were given at 1 hour intervals. On the days of testing, each animal was subjected to one trial under the conditions described above. Each trial was terminated when the mouse fell or when it had stayed on the rotarod for 450 seconds. The mice were returned to their home cages after testing. Group 1: hemizygote Transgenic B6CBA-Tg(HDexon 1)62Gpb/1J mice treated with vehicle i.p. once a day for 4 days (from day 0 to day 3) Group 2: hemizygote Transgenic B6CBA-Tg(HDexon 1)62Gpb/1J mice treated with 5 mg/kg i.p. of test item once a day for 4 days (from day 0 to day 3) […] • Test item administration • Simplified Irwin test, 40 minutes after administration • Rotarod test, immediately after the simplified Irwin test • Test item administration • Simplified Irwin test, 40 min after administration • Rotarod test, immediately after simplified #Irwin test Simplified Irwin scores were analysed using non-parametric Mann-Whitney's U test. Locomotor activity data were analysed using Dunnett's t-test. Rotarod scores were analysed using the non-parametric Mann-Whitney's U-test. Statistical analyses were performed using the software Statview SE^+graphics software, Brain Power.

[2] = target: T1, monoamine oxidase isoform B (Homo sapiens, UniProt P27338); assay: Monoamine oxidase B inhibition; assay type: biochemical
T1 sequence (P27338 1-520): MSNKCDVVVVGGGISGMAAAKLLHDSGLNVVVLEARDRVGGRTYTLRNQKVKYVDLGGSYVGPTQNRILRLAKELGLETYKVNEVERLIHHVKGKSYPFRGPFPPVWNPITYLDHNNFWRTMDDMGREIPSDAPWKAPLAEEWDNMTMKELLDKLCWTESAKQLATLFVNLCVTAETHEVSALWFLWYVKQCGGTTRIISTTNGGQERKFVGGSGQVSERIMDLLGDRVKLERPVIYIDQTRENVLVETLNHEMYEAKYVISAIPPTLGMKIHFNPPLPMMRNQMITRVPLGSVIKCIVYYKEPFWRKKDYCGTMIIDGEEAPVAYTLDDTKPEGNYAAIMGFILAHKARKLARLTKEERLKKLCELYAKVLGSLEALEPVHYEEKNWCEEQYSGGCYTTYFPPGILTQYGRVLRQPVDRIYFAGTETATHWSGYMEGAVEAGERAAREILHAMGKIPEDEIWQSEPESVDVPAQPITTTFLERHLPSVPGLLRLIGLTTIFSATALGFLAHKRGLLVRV

[3] = target: serotonin transporter protein SERT (Homo sapiens, UniProt P31645); assay: Serotonin transporter SERT inhibition; assay type: binding
Chain of serotonin transporter protein SERT (P31645 whole entry): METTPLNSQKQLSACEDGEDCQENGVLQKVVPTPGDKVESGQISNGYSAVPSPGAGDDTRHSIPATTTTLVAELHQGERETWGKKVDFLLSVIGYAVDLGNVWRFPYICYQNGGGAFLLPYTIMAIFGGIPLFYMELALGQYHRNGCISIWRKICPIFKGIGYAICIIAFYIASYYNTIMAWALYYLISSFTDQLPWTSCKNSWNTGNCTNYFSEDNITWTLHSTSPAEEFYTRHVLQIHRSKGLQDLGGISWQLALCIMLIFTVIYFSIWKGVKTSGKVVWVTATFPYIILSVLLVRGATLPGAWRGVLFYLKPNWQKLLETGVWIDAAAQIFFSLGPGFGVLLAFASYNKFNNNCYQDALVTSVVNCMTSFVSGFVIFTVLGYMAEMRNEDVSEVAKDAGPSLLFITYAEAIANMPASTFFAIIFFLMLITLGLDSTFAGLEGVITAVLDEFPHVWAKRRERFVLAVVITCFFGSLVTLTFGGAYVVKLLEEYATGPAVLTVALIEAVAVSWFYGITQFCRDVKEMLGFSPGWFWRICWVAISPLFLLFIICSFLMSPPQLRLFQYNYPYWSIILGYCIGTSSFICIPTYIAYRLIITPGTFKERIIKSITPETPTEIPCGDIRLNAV

Compound: COc1cc2c(cc1OC)[C@H]1C[C@H](O)[C@@H](CC(C)C)CN1CC2 (single isomer, unassigned) [Isomer B]
- Measured latencies to fall from Rotarod ([1]; Day 0, prior to 1st administration): 68.4 ± 17.7 s
- Measured latencies to fall from Rotarod ([1]; Day 1): 91.4 ± 18.1 s
- Measured latencies to fall from Rotarod ([1]; Day 3): 59.4 ± 11.2 s
- Measured latencies to fall from Rotarod ([1]; Day 9): 29.0 ± 12.1 s
- Measured latencies to fall from Rotarod ([1]; Day 17): 30.0 ± 11.0 s
- Measured latencies to fall from Rotarod ([1]; Day 21): 22.1 ± 7.3 s
- Measured latencies to fall from Rotarod ([1]; Day 24): 14.8 ± 4.3 s
- Measured latencies to fall from Rotarod ([1]; Day 27): 15.8 ± 5.2 s
- Measured latencies to fall from Rotarod ([1]; Day 31): 7.8 ± 2.4 s
- inhibitory activity against monoamine oxidase isoform B [2]: no inhibitory activity
- inhibition of the serotonin transporter protein SERT [3]: potent inhibitors
